From a melting point compilation (Tetko et al.; mined from patent text by program, amines drawn as free bases though some values may be those of a salt)

| SMILES | melting point |
| --- | --- |
| COc1ccc(C2(O)OC(=O)C(c3cc(OC)c4c(c3)OCO4)=C2CC2CCCC2)cc1C (centres undefined) | 144 to 145 °C |
| Cc1ccc(S(=O)(=O)N2CCC(S(=O)(=O)c3ccc(Cl)cc3)CC2)cc1 | 263 to 264 °C |
| Cc1c(Cc2ccccc2)c(=O)[nH]c2cc(O)cc(O)c12 | 307 to 312 °C |
| CCOC(=O)c1cccc2nc(OCC)n(Cc3ccc(-c4ccccc4-c4nnn[nH]4)cc3)c12 | 158 to 159 °C |
| CC(C)c1ccc(S(=O)(=O)Nc2nc(-c3cccc([N+](=O)[O-])c3)cs2)nc1 | 208 to 210 °C |
| CCOc1ccc(S(=O)(=O)N[C@H](CCCN2C(=O)c3ccccc3C2=O)C(=O)O)cc1 | 151 to 152 °C |
| CCc1nc(C)cn1-c1ccc2nc(NC(=O)c3ccc(C(C)(C)C)cc3)cn2n1 | 220 to 221 °C |
| CC(C)(C)c1cc(C(=O)Nc2ccccc2NC(=O)N(Cc2ccccc2)Cc2ccccc2)cc(C(C)(C)C)c1O | 187 to 189 °C |
| NC(=O)c1nnn(Cc2ccccc2)c1NC(=O)c1ccccc1 | 191 to 192 °C |
| CCOc1cc(OCC)c2c(C)c(CCO)c(=O)oc2c1 | 117 to 119 °C |
| CCCn1c(=O)c2c(nc(C=Cc3cc(OC)c(OC)c(OC)c3S(N)(=O)=O)n2C)n(CCC)c1=O | 243 to 245 °C |
| CC(C)n1nc(-c2sc(C(=O)NCc3ccccn3)nc2-c2ccc(F)cc2)ccc1=O | 204 to 205 °C |
| CCSc1ccc(C(=O)NCc2ccc3c(c2)C(=O)N(C2CCC(=O)NC2=O)C3=O)nn1 (centres undefined) | 205 to 207 °C |
| CC(C)CCn1cc(C(=O)Nc2nccs2)c2ccc(Cl)cc21 | 179 to 180 °C |
| Cc1ccc(-c2cn(C)c(-c3nc(-c4ccc(C)s4)cn3C)n2)s1 | 220 to 228 °C |
| NNC(=S)N1CCN(c2nc3cccccc-3n2)CC1 | 224 to 228 °C |
| Nc1ccc2ncc(Br)cc2c1 | 151 to 152 °C |
| O=C1CC(c2ccccc2Cl)=Nc2c1cccc2C(=O)OCCO | 170 to 171 °C |
| COc1ccc(-c2cccs2)c2c(OC)ccc(-c3cccs3)c12 | 216 to 218 °C |
| Clc1cccc(-n2c(/C=C/c3ccccc3)nc3ccccc32)n1 | 122 to 123 °C |
| CCOC(=O)c1cn(-c2nc(NC(C)(C)C)c(F)cc2F)c2c(C)c(F)c(F)cc2c1=O | 207 to 211 °C |
| COc1cc2c(c3c1OC(C)(C)C3)C(c1cccc(C(N)=O)c1)=NCC2(C)C | 191 to 193 °C |
| CC(O)(CCBr)c1ccc(-c2cccc(F)c2)cc1 (centres undefined) | 72 to 74 °C |
| COc1cc(-n2ccc(C(F)(F)F)cc2=O)c(F)cc1C#N | 194 to 196 °C |
| NC(=O)c1c(F)ccc(OCc2nc3cc(-c4ccncc4)ccc3s2)c1F | 255 to 258 °C |

| SMILES | melting point |
| --- | --- |
| ON=c1cc(-c2cc3cccn3cn2)oc2ccc(OCCc3ccc(Cl)cc3)cc12 | 247 to 249 °C |
| COc1cccc(F)c1-c1ccc(NC(=O)OC(C)(C)C)c(N)c1 | 165 to 167 °C |
| CCOc1ccc(-c2nc3n(c2-c2ccncc2)CCC3)cc1 | 133 to 135 °C |
| O=C(Oc1ccccc1)C1c2ccccc2Oc2ccc(O)cc21 (centres undefined) | 182 to 184 °C |
| CCOC(=O)Nn1cccc1C(=O)c1ccc(Cl)cc1Cl | 114 to 116 °C |
| Cc1nnc(-c2ccc3occ(-c4ccc(OC(F)(F)F)cc4)c3c2)o1 | 129 to 130 °C |
| Cc1c(CCc2ccccc2)c(=O)oc2cc(OCC#N)cc(OCC#N)c12 | 179 to 183 °C |
| Cc1ncccc1[N+](=O)[O-] | 29 to 31 °C |
| N=C(N)N(CCCC(C=O)NC(=O)C1CCCN1C(=O)COc1ccccc1)C(=O)OCc1ccccc1 (centres undefined) | 65 to 78 °C |
| COc1ccc2nccc(CCC[C@@H]3CCN(CCC(F)c4ccccc4)C[C@@H]3C(=O)O)c2c1 (some centres undefined) | 60 °C |
| CCN1C(=O)N(SC(Cl)(Cl)Cl)C(=O)C1(C)C | 141 to 142 °C |
| CC(=O)Nc1ccccc1Nc1ccc(C(=O)c2ccccc2)cc1 | 155 to 157 °C |
| N#CC(Nc1ccccc1C(=O)C1CC1)c1c(Cl)cccc1Cl (centres undefined) | 144 °C |
| CC1=NC(NC(=O)Nc2cc(C)ccn2)C(=O)N(CC(=O)N2CC3CCC(CC3)C2)c2c(C)cccc21 (centres undefined) | 152 to 154 °C |
| Cc1oc(-c2ccc(C(F)(F)F)cc2)nc1-c1ccc(-c2cc(Br)c(O)c(Br)c2)cc1 | 79 to 81 °C |
| CC(C)n1nc(-c2sc(C(=O)NCCN3CCOCC3)nc2-c2ccccc2)ccc1=O | 196 to 198 °C |
| N#CCc1ccc(OCc2ccccc2)cc1OCc1ccccc1 | 99 to 100 °C |
| COc1ccc(-c2nc(N3CCN(C)CC3)c3c(C)c(C#N)sc3n2)cc1OC | 208 to 209 °C |
| COc1cccc2c1c1nc3ccccc3cc1n2C(C)=O | 125 to 126 °C |
| C#CCOc1cc(-n2c(OC)nc(C(F)(F)F)cc2=O)c(F)cc1Br | 136 to 138 °C |
| CCCCCc1ccc(-c2ccc(-c3nc(N)nc(N)n3)cc2)cc1 | 242 to 244 °C |
| O=c1c(CCCCCCCc2ccncc2)cc2cccnc2n1-c1cccc([N+](=O)[O-])c1 | 189 to 192 °C |
| CCN1c2ncccc2C(=O)N(C)c2ccc(-c3ccn(C)c3)nc21 | 187 to 188 °C |
| CC1(C)OC[C@H]([C@@H](CS(=O)(=O)c2ccc(Oc3ccc(C(F)(F)F)cc3)cc2)N(O)C=O)O1 | 141 to 143 °C |
